Experimental data published in article PMC8968952, “Modulation of ERCC1-XPF Heterodimerization Inhibition via Structural Modification of Small Molecule Inhibitor Side-Chains” (Frontiers in Oncology, 2022).

Assays:
[1] = target: CYP2C9 (Homo sapiens, UniProt P11712); set-up: method as in PMID 31369707; details: read-out: Inhibition of cytochrome P450 (IC50) CYP2C9; cited from earlier work
[2] = set-up: method as in PMID 31369707; details: cited from earlier work
[3] = tested on: HCT-116 cells; set-up: method as in PMID 31369707; details: 1.0 μM compound, 4 J/m^2 UVC; cited from earlier work
[4] = target: CYP2D6 (Homo sapiens, UniProt P10635); set-up: method as in PMID 31369707; details: read-out: Inhibition of cytochrome P450 (IC50) CYP2D6; cited from earlier work
CYP2D6, sequence (P10635 whole entry): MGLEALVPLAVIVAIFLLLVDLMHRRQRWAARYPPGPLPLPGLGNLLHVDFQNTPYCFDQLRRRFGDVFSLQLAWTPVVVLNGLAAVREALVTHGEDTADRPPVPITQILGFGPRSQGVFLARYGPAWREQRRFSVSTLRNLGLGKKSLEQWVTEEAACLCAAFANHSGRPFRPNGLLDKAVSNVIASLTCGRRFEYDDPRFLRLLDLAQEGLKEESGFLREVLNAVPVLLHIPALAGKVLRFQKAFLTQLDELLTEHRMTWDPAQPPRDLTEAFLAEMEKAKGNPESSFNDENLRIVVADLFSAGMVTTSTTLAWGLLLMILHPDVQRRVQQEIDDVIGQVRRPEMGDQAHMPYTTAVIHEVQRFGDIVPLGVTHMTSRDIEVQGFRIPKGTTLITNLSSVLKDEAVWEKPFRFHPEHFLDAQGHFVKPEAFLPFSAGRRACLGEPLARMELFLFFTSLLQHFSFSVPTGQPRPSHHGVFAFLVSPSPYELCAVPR

[5] = tested on: HCT-116 cells; set-up: method as in PMID 31369707; details: 1 μM compound, 50 μM cyclophosphamide; cited from earlier work
[6] = tested on: HCT-116 cells; set-up: method as in PMID 31369707; details: 2 μM, after 24 hours; cited from earlier work
[7] = tested on: ERCC1 or XPF levels in A549 cells; assay: Western blot of ERCC1 and XPF protein levels (PLA control); format: cell-based, human; details: 2 µM, 24 h
Experimental: page 1: Supplementary Material […] Supplementary Figure 1. ERCC1-XPF mediated cleavage of the stem-loop DNA substrate, in which the FAM signal is quenched, releases the fluorescently tagged octanucleotide. Triplicate measurements of the control (DMSO) and the effect of 10 μM of compounds 4 and 6 on the incision activity is shown. 2 PLA Control Experiments Supplementary Figure 2. A549 cells were seeded in 6-well culture dishes (Thermo Fishes Scientific) at a density of 0.3 X 10^6 cells/well in a final volume of 3 ml. […] The chambers were incubated for 24 h and then washed with PBS and the cells were solubilized with RIPA buffer in the presence of protease inhibitor cocktail (Cell Signaling Technology) plus 2 mM EDTA. […] EpiGentek), XPF (LS- C173159, 1:1000; LifeSpan BioSciences, Seattle, WA) and B-Actin (sc-47778, 1:1000; Santa Cruz) primary antibodies followed by secondary anti-mouse or anti-rabbit secondary HRP-conjugated secondary antibodies. ECL chemiluminescent substrate (Promega) was used to detect the proteins. 3 Cytotoxicity Analysis Supplementary Figure 3. Cytotoxicity assay using colony forming assay 4 HCT-116 Derived XPF Knockout Cells For CRISPR deletion of XPF from HCT-116 cells, the pSpCas9(BB)-2A-GFP (pX458) vector (Addgene plasmid # 48138) was used. The short guide sequence to target XPF exon one was: 5'- [NT] 3' and target XPF exon eight was: 5'- [NT]3'. […]

[8] = target: T1, ERCC1-XPF heterodimer in A549 cells (Homo sapiens, UniProt Q92889); set-up: method as in PMID 33399940; details: A549 cells treated with 20 μM cisplatin and 1 μM inhibitor; cited from earlier work
T1 construct: endogenous in cells; host or cells: A549
T1 sequence (Q92889 1-916): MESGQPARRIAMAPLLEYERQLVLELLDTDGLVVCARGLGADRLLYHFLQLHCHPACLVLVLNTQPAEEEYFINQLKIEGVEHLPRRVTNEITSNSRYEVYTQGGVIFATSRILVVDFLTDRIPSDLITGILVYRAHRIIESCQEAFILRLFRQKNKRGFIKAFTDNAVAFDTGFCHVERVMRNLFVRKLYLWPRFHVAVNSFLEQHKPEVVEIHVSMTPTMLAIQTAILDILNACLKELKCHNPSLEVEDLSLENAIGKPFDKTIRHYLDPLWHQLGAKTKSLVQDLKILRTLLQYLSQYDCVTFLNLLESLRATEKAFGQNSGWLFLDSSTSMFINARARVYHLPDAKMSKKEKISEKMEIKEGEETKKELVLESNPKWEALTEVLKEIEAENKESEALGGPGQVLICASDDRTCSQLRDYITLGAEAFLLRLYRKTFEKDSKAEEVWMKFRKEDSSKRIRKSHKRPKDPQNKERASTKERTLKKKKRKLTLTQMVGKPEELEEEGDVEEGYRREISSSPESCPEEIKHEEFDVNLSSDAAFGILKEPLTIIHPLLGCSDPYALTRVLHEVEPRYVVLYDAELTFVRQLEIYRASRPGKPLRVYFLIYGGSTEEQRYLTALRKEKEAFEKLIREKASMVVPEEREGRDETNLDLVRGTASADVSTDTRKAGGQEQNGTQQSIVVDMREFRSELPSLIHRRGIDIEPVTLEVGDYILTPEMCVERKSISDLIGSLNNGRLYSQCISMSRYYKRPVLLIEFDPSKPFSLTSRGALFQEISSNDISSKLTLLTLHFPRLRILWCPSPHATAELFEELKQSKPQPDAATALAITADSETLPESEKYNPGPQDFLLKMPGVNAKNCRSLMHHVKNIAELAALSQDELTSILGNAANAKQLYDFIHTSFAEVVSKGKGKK

[9] = target: CYP2C19 (Homo sapiens, UniProt P33261); set-up: method as in PMID 31369707; details: read-out: Inhibition of cytochrome P450 (IC50) CYP2C19; cited from earlier work
CYP2C19, sequence (P33261 whole entry): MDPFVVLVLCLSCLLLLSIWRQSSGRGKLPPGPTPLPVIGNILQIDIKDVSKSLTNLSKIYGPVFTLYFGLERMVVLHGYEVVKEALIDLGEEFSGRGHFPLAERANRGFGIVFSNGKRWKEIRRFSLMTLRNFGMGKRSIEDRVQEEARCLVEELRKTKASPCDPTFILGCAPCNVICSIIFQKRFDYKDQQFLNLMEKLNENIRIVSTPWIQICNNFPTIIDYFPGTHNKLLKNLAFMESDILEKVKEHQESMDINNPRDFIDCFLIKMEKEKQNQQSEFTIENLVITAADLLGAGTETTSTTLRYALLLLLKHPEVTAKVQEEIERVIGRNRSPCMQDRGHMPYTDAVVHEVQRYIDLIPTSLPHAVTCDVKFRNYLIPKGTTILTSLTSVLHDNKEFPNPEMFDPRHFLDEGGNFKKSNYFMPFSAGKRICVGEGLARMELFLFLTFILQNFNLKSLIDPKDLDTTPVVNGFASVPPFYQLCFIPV

[10] = target: CYP3A4-M (Homo sapiens, UniProt P08684); set-up: method as in PMID 31369707; details: read-out: Inhibition of cytochrome P450 (IC50) CYP3A4-M; cited from earlier work
CYP3A4-M, sequence (P08684 whole entry): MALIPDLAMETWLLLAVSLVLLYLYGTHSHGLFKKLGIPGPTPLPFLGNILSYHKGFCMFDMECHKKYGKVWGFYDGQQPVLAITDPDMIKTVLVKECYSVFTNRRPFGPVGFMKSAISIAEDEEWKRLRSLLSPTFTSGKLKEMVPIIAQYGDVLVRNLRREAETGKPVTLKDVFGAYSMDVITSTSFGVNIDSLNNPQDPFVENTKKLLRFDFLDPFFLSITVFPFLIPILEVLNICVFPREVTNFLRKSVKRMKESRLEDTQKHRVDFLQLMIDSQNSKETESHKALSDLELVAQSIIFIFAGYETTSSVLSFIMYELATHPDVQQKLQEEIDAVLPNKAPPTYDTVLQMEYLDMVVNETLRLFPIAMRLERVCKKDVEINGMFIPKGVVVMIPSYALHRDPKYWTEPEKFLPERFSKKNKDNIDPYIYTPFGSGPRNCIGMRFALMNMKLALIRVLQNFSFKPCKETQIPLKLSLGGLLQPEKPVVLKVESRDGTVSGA

[11] = set-up: method as in PMID 31369707; details: cited from earlier work; remark: listed apart in the source

CYP2C9, sequence (P11712 whole entry): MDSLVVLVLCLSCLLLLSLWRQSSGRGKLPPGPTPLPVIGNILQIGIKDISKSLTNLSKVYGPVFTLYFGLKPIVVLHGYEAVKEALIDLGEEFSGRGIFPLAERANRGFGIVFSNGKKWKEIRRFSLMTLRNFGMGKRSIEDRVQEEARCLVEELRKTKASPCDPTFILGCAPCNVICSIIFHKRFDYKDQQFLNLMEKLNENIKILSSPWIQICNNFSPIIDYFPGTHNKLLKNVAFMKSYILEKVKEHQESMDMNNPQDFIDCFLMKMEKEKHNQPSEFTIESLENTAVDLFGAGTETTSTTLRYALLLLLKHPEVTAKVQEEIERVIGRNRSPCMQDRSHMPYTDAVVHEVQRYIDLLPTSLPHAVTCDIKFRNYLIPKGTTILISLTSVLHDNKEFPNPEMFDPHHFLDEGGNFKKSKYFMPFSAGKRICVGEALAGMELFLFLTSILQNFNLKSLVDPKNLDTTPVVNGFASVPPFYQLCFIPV

For `COc1ccc2nc3cc(Cl)ccc3c(Nc3ccc(O)c(CN4CCN(CCN(C)C)CC4)c3)c2c1` [Compound 4], the IC50 [1] is given as > 50 µM, the “Metabolic stability in human liver microsomes (clearance)” value [2] is given as 44.0 (mL/min/kg) and the “cell survival after UVC” value [3] is given as ~ 50%. For the same molecule, the IC50 [4] was 16 µM, the “cell survival with cyclophosphamide” value [5] was “about 75%” and the CPD removal [6] was 60%. For the same molecule, the “levels of ERCC1 or XPF vs untreated cells” value [7] was “no significant differences”, the “PLA: inhibition of the interaction between ERCC1 and XPF (in words)” value [8] was “clear inhibition of the interaction between ERCC1 and XPF” and the IC50 [9] was > 50 µM. The IC50 [10] was 37.1 µM, the “Metabolic stability in cryopreserved human hepatocytes (clearance)” value [11] was 48.8 mL/min/kg and the “Metabolic stability in cryopreserved human hepatocytes T1/2” value [11] was 1.32 h.
